Assay results as given in paper PMC2732577 (Biochemistry, 2008).
Entries after “also recorded” stand apart in the source; their conditions may differ. Ends that are not written are not given here.

What was measured:
Assay type in all cases: biochemical
[1] = target: T1, Pf-Sir2 (Plasmodium falciparum, UniProt Q8IE47)
T1 sequence (Q8IE47 1-273): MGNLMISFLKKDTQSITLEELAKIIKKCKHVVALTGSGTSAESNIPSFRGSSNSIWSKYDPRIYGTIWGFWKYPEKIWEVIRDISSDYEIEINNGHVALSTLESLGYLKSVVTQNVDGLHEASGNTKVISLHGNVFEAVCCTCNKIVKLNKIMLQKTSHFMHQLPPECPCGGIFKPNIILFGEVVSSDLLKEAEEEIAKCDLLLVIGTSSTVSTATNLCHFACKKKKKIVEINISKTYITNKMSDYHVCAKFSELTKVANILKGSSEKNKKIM

[2] = target: T1, Pf-Sir2; remark: listed apart in the source
[3] = target: T1, Pf-Sir2; remark: listed apart in the source
[4] = target: T1, Pf-Sir2; assay: Thionicotinamide base-exchange assay; conditions: similar reaction conditions, H3 substrate
[5] = target: T1, Pf-Sir2; assay: Decomposition of AADPR in presence of Pf-Sir2; conditions: data not shown

## NC(=O)c1ccc[n+]([C@@H]2O[C@H](COP(=O)([O-])OP(=O)(O)OC[C@H]3O[C@@H](n4cnc5c(N)ncnc54)[C@H](O)[C@@H]3O)[C@@H](O)[C@H]2O)c1 [NAD^+, nicotinamide adenine dinucleotide oxidized form]
[1]; read-out: Km for NAD^+ in H3 deacetylation
  Km: 120 µM
[2]
  stereochemistry of Pf-Sir2 methanolysis product: inverted stereochemistry; also recorded: only α-1-O-methyl-ADPR as a product (no β)
[2]; pH 8.5
  k0 (α-MeO-ADPR): 0.00027 s⁻¹
  ksolvolysis (combined ADPR and 1-O-methyl-ADPR): 0.00138 s⁻¹
[3]
  rate of peptide-independent solvolysis vs deacetylation: exceeds the deacetylation rate for H3
[3]; pH 7.3
  kcat, NAD^+ hydrolysis, no peptide: 1.2 ± 0.2 10^−3 s^−1

## p300: human di-acetylated p300 sequence corresponding to amino acid positions 1034–1053 (ATQSSPAPGQSKKKIFKPEE; also: di-acetylated, places not given here; UniProt Q09472 1034-1053, looked up, fragment)
[1]
  deacetylation co-product: 2′- and 3′- O-acetyl-ADP-ribose (AADPR)
[3]
  stimulation of NAD^+ hydrolysis by peptide: best hydrolysis stimulating substrate

## NC(=S)c1cccnc1 [thionicotinamide]
[4]
  base-exchange Km, times higher than nicotinamide: 8 times
  base-exchange, times slower than nicotinamide: approximately 4 times

## O-acetyl-adenosine diphosphoribose [AADPR]
[5]
  decomposition of AADPR on adding Pf-Sir2 to SIRT1 reaction mixture: not decomposed
[5]; relative to a control
  decomposition of purified AADPR in presence of Pf-Sir2: not decomposed faster relative to a control
